# In the supplement of paper PMC10307832:
# Compound: N[C@@H]1CCCN(c2c(/C=C3\SC(=O)NC3=O)cccc2-c2ccccc2)C1 [AZD1208] + Nc1ncn([C@H]2C[C@H](O)[C@@H](CO)O2)c(=O)n1 [Decitabine] (partner 2 µM)
# Assay: relative viability (nuclei count vs DMSO), 5 days (fraction); higher = more cells survive
# Conditions: first compound 0.253 µM
# How it was run: (§1)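 Relative viability is defined as nuclei in treated wells over nuclei in vehicle wells. Duplicate plates were run and medians reported. Lung cancer cell lines in 1536-well plates were dosed by pin tool one day after seeding, with one drug or with a fixed anchor-drug dose plus five library-drug doses (not always all listed) in √10 steps, and nuclei were counted after 5 days.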
row,Cell Line,relative viability
1,NCI-H1650,0.502
2,NCI-H2009,0.374
3,NCI-H1993,0.586
4,PC-14,0.209
5,LCLC-103H,0.654
6,NCI-H596,1.01
7,EMC-BAC-2,0.94
8,NCI-H2087,0.307
9,HCC-366,0.354
10,NCI-H1666,0.713
11,NCI-H647,0.56
12,LK-2,0.291
13,NCI-H2126,0.641
14,NCI-H2342,0.736
15,SK-MES-1,0.352
16,H3255,0.714

row,Cell Line,relative viability
1,COR-L23,0.502
2,COR-L 105,0.672
3,LOU-NH91,0.798
4,ChaGo-K-1,0.509
5,NCI-H2170,0.498
6,NCI-H3122,0.362
7,HOP-62,0.212
8,A549,0.301
9,SW 900,0.407
10,NCI-H1648,0.476
11,NCI-H2023,0.193
12,NCI-H520,0.507
13,SW 1573,0.417
14,SK-LU-1,0.621
15,NCI-H661,0.56

# Same assay, conditions: first compound 0.8 µM
row,Cell Line,relative viability
1,NCI-H522,0.73
2,NCI-H838,0.465
3,NCI-H1650,0.403
4,NCI-H2009,0.346
5,NCI-H1993,0.613
6,PC-14,0.224
7,LCLC-103H,0.707
8,NCI-H596,0.901
9,EMC-BAC-2,0.903
10,NCI-H2087,0.258
11,HCC-366,0.312
12,NCI-H1666,0.635
13,NCI-H647,0.33
14,LK-2,0.23
15,NCI-H2126,0.523
16,NCI-H2342,0.595
17,SK-MES-1,0.33

row,Cell Line,relative viability
1,H3255,0.56
2,COR-L23,0.412
3,COR-L 105,0.633
4,LOU-NH91,0.793
5,ChaGo-K-1,0.399
6,NCI-H2170,0.417
7,NCI-H3122,0.351
8,HOP-62,0.22
9,A549,0.218
10,SW 900,0.382
11,NCI-H1648,0.464
12,NCI-H2023,0.199
13,NCI-H520,0.473
14,SW 1573,0.457
15,SK-LU-1,0.629
16,NCI-H661,0.547

# Same assay, conditions: first compound 2.53 µM
row,Cell Line,relative viability
1,NCI-H522,0.643
2,NCI-H838,0.493
3,NCI-H1650,0.376
4,NCI-H2009,0.39
5,NCI-H1993,0.5
6,PC-14,0.203
7,LCLC-103H,0.723
8,NCI-H596,0.902
9,EMC-BAC-2,0.992
10,NCI-H2087,0.236
11,HCC-366,0.386
12,NCI-H1666,0.743
13,NCI-H647,0.372
14,LK-2,0.274
15,NCI-H2126,0.501
16,NCI-H2342,0.674
17,SK-MES-1,0.364

row,Cell Line,relative viability
1,H3255,0.589
2,COR-L23,0.396
3,COR-L 105,0.628
4,LOU-NH91,0.798
5,ChaGo-K-1,0.481
6,NCI-H2170,0.481
7,NCI-H3122,0.431
8,HOP-62,0.254
9,A549,0.314
10,SW 900,0.395
11,NCI-H1648,0.547
12,NCI-H2023,0.206
13,NCI-H520,0.456
14,SW 1573,0.448
15,SK-LU-1,0.622
16,NCI-H661,0.502

# Same assay, conditions: first compound 8 µM
row,Cell Line,relative viability
1,NCI-H522,0.636
2,NCI-H838,0.406
3,NCI-H1650,0.449
4,NCI-H2009,0.336
5,NCI-H1993,0.468
6,PC-14,0.207
7,LCLC-103H,0.743
8,NCI-H596,0.756
9,EMC-BAC-2,0.812
10,NCI-H2087,0.25
11,HCC-366,0.333
12,NCI-H1666,0.629
13,NCI-H647,0.297
14,LK-2,0.195
15,NCI-H2126,0.475
16,NCI-H2342,0.581
17,SK-MES-1,0.301

row,Cell Line,relative viability
1,H3255,0.523
2,COR-L23,0.395
3,COR-L 105,0.538
4,LOU-NH91,0.798
5,ChaGo-K-1,0.465
6,NCI-H2170,0.369
7,NCI-H3122,0.315
8,HOP-62,0.24
9,A549,0.17
10,SW 900,0.444
11,NCI-H1648,0.567
12,NCI-H2023,0.225
13,NCI-H520,0.428
14,SW 1573,0.354
15,SK-LU-1,0.511
16,NCI-H661,0.51

# Compound: N[C@@H]1CCCN(c2c(/C=C3\SC(=O)NC3=O)cccc2-c2ccccc2)C1 [AZD1208] + CS(=O)(=O)N1CCN(Cc2cc3nc(-c4cccc5[nH]ncc45)nc(N4CCOCC4)c3s2)CC1 [Pictilisib] (partner 1 µM)
# Assay: as above
# Conditions: first compound 0.08 µM
# How it was run: as §1
row,Cell Line,relative viability
1,NCI-H838,0.374
2,NCI-H1650,0.529
3,EBC-1,0.2
4,NCI-H1703,0.225
5,NCI-H2009,0.725
6,PC-14,0.617
7,LCLC-103H,0.568
8,NCI-H596,0.388
9,NCI-H2228,0.207
10,EMC-BAC-2,0.537
11,NCI-H2087,0.665
12,Calu-6,0.784
13,HCC-366,0.112
14,NCI-H1666,0.359
15,NCI-H647,0.463
16,LK-2,0.373
17,NCI-H2126,0.437
18,SK-MES-1,0.257
19,H3255,0.402
20,COR-L23,0.738
21,COR-L 105,0.369
22,IA-LM,0.256
23,LOU-NH91,0.503
24,ChaGo-K-1,0.979
25,NCI-H2170,0.319
26,NCI-H3122,0.506
